According to ChEMBL document CHEMBL5463729, “Data for DCP probe BAY 1753011” (2023):

How the values were obtained:
Settings in all cases: Compound concentration 10.0 uM
[1] = biological target: Calcium/calmodulin-dependent protein kinase type II subunit beta (Homo sapiens) (UniProt Q13554); assay: Inhibition of CaMKIIbeta(h) at 10.0 µM in the Eurofins Kinase panel
[2] = biological target: Serine/threonine-protein kinase STK11 (Homo sapiens) (UniProt Q15831); assay: Inhibition of LKB1(h) at 10.0 µM in the Eurofins Kinase panel
[3] = biological target: Ephrin type-A receptor 1 (Homo sapiens) (UniProt P21709); assay: Inhibition of EphA1(h) at 10.0 µM in the Eurofins Kinase panel
[4] = biological target: Cyclin-dependent kinase-like 3 (Homo sapiens) (UniProt Q8IVW4); assay: Inhibition of CDKL3(h) at 10.0 µM in the Eurofins Kinase panel
[5] = biological target: Protein kinase C delta type (Homo sapiens) (UniProt Q05655); assay: Inhibition of PKCdelta(h) at 10.0 µM in the Eurofins Kinase panel
[6] = biological target: Muscarinic acetylcholine receptor M3 (Homo sapiens) (UniProt P20309)
[7] = biological target: Macrophage-stimulating protein receptor (Homo sapiens) (UniProt Q04912); assay: Inhibition of Ron(h) at 10.0 µM in the Eurofins Kinase panel
[8] = biological target: GABA-A receptor; anion channel (Rattus norvegicus) (UniProt O09028+P15431+P18506+P18508+P19969+P20236+P23574+P23576+P28471+P28473+P30191+P62813+P63079+P63138+Q91ZM7+Q9ES14)
[9] = biological target: Serine/threonine-protein kinase Nek5 (Homo sapiens) (UniProt Q6P3R8); assay: Inhibition of NEK5(h) at 10.0 µM in the Eurofins Kinase panel
[10] = biological target: Bone morphogenetic protein receptor type-1B (Homo sapiens) (UniProt O00238); assay: Inhibition of ALK6(h) at 10.0 µM in the Eurofins Kinase panel
[11] = biological target: T1, 5-hydroxytryptamine receptor 1A (Homo sapiens) (UniProt P08908)
T1 sequence (whole entry): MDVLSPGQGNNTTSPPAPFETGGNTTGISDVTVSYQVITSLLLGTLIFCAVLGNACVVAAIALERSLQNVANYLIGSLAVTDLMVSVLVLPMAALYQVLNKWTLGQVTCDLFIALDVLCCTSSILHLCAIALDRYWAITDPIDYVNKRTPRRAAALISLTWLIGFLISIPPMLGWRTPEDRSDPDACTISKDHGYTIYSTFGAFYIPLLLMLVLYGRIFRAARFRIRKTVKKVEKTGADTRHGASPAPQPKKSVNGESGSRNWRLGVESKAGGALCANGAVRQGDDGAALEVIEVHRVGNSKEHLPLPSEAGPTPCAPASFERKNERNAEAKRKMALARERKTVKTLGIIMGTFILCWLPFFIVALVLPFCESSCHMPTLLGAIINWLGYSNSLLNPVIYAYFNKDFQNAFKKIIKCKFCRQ

[12] = biological target: eIF-2-alpha kinase GCN2 (Homo sapiens) (UniProt Q9P2K8); assay: Inhibition of GCN2(h) at 10.0 µM in the Eurofins Kinase panel
[13] = biological target: Focal adhesion kinase 1 (Homo sapiens) (UniProt Q05397); assay: Inhibition of FAK(h) at 10.0 µM in the Eurofins Kinase panel
[14] = biological target: Tyrosine-protein kinase Lyn (Homo sapiens) (UniProt P07948); assay: Inhibition of Lyn(h) at 10.0 µM in the Eurofins Kinase panel
[15] = biological target: D(2) dopamine receptor (Homo sapiens) (UniProt P14416)
[16] = biological target: Serine/threonine-protein kinase D1 (Homo sapiens) (UniProt Q15139); assay: Inhibition of PKCmu(h) at 10.0 µM in the Eurofins Kinase panel
[17] = biological target: T2, Alpha-2B adrenergic receptor (Homo sapiens) (UniProt P18089)
T2 sequence (whole entry): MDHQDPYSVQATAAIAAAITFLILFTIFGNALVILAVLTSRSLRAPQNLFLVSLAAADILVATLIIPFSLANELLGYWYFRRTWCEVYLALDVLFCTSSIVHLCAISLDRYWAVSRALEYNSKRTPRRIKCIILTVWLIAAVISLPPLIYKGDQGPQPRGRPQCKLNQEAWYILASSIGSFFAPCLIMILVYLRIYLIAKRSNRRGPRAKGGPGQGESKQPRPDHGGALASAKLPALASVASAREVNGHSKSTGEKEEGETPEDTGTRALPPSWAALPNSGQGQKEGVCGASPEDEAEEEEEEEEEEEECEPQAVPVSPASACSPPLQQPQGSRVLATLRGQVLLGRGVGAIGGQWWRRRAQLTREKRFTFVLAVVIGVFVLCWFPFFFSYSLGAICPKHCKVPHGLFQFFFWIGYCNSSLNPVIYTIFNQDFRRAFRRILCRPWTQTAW

[18] = biological target: Serine/threonine-protein kinase PAK 6 (Homo sapiens) (UniProt Q9NQU5); assay: Inhibition of PAK6(h) at 10.0 µM in the Eurofins Kinase panel
[19] = biological target: Eukaryotic elongation factor 2 kinase (Homo sapiens) (UniProt O00418); assay: Inhibition of eEF-2K(h) at 10.0 µM in the Eurofins Kinase panel
[20] = biological target: Serine/threonine-protein kinase LATS1 (Homo sapiens) (UniProt O95835); assay: Inhibition of LATS1(h) at 10.0 µM in the Eurofins Kinase panel
[21] = biological target: Muscle, skeletal receptor tyrosine-protein kinase (Homo sapiens) (UniProt O15146); assay: Inhibition of MuSK(h) at 10.0 µM in the Eurofins Kinase panel
[22] = biological target: Casein kinase I isoform gamma-2 (Homo sapiens) (UniProt P78368); assay: Inhibition of CK1gamma2(h) at 10.0 µM in the Eurofins Kinase panel
[23] = biological target: Phosphatidylinositol 3-kinase C2 domain-containing subunit gamma (Homo sapiens) (UniProt O75747); assay: Inhibition of PI3KC2g(h) at 10.0 µM in the Eurofins Kinase panel
[24] = biological target: 5'-AMP-activated protein kinase catalytic subunit alpha-1 (Homo sapiens) (UniProt Q13131); assay: Inhibition of AMPKalpha1(h) at 10.0 µM in the Eurofins Kinase panel
[25] = biological target: Rhodopsin kinase GRK7 (Homo sapiens) (UniProt Q8WTQ7); assay: Inhibition of GRK7(h) at 10.0 µM in the Eurofins Kinase panel
[26] = biological target: Serine/threonine-protein kinase WNK1 (Homo sapiens) (UniProt Q9H4A3); assay: Inhibition of WNK1(h) at 10.0 µM in the Eurofins Kinase panel
[27] = biological target: Ephrin type-B receptor 2 (Homo sapiens) (UniProt P29323); assay: Inhibition of EphB2(h) at 10.0 µM in the Eurofins Kinase panel
[28] = biological target: Phosphatidylinositol 4-phosphate 5-kinase type-1 alpha (Homo sapiens) (UniProt Q99755); assay: Inhibition of PIP5K1a(h) at 10.0 µM in the Eurofins Kinase panel

Chain of Muscarinic acetylcholine receptor M3 (Homo sapiens) (P20309 whole entry, looked up): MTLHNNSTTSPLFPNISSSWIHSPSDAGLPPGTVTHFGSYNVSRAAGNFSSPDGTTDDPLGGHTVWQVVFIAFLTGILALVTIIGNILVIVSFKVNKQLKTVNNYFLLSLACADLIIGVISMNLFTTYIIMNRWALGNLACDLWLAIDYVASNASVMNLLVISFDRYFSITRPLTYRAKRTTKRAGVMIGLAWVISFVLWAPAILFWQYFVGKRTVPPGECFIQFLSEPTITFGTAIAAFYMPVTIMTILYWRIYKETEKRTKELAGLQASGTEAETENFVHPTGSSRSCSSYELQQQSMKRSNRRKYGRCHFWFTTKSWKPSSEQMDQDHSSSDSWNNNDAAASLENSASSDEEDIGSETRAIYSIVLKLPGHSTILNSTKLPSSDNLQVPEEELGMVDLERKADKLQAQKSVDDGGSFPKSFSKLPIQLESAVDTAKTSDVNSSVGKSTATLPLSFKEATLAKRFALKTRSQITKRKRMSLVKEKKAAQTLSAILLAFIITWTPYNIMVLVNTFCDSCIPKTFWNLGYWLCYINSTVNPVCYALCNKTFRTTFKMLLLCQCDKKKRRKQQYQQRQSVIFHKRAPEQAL
Chain of Eukaryotic elongation factor 2 kinase (Homo sapiens) (O00418 whole entry): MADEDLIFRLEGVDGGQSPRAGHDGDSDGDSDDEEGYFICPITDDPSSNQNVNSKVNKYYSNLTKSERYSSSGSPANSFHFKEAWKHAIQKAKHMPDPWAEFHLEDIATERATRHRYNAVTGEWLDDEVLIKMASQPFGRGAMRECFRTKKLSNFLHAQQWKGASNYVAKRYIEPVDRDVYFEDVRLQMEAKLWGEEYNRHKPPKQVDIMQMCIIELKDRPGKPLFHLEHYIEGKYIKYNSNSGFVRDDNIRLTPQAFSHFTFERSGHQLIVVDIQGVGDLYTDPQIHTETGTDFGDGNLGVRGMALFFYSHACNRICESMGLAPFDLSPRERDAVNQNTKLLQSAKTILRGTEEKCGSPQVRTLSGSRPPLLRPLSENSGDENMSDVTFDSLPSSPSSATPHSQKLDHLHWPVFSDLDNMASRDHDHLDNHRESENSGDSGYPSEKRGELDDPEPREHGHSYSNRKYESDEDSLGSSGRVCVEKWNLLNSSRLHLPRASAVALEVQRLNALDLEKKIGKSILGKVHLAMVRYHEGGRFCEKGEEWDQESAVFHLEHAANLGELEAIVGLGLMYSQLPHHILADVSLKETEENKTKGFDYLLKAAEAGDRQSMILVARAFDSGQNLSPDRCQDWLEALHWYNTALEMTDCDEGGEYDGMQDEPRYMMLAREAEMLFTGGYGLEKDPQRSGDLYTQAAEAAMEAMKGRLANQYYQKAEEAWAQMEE
Chain of Macrophage-stimulating protein receptor (Homo sapiens) (Q04912 25-304 limits assumed): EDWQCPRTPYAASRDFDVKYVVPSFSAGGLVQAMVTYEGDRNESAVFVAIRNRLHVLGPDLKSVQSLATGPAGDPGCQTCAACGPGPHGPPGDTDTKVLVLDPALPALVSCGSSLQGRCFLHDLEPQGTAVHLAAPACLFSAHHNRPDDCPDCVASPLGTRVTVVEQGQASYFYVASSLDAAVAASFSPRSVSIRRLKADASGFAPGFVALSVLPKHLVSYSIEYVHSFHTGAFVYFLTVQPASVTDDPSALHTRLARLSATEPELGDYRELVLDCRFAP
Chain of Macrophage-stimulating protein receptor (Homo sapiens) (Q04912 310-1400 limits assumed): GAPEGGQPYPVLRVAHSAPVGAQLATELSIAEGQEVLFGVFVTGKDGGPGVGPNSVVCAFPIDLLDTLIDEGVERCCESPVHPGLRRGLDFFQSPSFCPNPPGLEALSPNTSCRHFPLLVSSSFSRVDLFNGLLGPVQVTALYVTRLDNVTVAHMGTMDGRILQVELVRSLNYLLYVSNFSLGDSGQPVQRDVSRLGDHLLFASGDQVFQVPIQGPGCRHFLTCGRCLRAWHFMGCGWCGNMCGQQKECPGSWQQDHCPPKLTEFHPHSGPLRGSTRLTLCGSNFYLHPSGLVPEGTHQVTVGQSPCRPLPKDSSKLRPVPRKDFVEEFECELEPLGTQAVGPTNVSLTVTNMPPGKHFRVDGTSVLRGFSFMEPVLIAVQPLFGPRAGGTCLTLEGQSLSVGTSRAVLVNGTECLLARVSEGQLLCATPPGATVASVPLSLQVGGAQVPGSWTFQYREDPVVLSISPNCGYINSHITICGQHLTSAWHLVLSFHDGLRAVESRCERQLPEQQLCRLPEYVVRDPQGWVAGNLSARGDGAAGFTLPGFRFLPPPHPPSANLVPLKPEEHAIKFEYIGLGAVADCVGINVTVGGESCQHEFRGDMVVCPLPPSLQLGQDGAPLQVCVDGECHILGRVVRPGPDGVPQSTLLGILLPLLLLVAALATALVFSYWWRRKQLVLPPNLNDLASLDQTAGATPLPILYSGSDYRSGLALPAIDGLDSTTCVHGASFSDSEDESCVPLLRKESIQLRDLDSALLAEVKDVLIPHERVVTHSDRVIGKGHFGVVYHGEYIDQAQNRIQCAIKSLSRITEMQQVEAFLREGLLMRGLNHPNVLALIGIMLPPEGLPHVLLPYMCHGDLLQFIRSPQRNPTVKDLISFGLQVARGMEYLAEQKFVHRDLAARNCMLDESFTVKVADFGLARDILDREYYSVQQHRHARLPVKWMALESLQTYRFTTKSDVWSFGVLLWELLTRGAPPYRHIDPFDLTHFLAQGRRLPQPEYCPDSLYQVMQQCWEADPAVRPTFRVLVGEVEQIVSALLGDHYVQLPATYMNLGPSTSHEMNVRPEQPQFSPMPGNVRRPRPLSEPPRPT
Chain of Serine/threonine-protein kinase Nek5 (Homo sapiens) (Q6P3R8 whole entry): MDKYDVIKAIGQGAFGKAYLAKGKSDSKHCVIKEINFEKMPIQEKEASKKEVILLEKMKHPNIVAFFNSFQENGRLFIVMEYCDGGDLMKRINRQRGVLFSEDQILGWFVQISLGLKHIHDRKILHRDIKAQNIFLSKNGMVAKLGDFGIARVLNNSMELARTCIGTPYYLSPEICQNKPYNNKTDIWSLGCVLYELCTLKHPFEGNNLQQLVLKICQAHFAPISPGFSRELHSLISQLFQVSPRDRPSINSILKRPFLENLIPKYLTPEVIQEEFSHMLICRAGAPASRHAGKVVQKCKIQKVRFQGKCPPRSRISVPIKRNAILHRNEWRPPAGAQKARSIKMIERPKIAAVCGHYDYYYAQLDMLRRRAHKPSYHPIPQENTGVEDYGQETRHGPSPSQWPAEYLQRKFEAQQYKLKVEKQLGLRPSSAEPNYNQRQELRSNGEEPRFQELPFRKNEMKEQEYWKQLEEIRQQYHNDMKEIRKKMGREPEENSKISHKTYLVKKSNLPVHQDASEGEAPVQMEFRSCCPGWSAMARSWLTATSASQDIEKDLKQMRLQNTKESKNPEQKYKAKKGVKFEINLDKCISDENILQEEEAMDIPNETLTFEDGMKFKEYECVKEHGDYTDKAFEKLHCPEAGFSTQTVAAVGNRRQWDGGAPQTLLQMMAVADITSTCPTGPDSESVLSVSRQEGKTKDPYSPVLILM
Chain of Serine/threonine-protein kinase D1 (Homo sapiens) (Q15139 whole entry): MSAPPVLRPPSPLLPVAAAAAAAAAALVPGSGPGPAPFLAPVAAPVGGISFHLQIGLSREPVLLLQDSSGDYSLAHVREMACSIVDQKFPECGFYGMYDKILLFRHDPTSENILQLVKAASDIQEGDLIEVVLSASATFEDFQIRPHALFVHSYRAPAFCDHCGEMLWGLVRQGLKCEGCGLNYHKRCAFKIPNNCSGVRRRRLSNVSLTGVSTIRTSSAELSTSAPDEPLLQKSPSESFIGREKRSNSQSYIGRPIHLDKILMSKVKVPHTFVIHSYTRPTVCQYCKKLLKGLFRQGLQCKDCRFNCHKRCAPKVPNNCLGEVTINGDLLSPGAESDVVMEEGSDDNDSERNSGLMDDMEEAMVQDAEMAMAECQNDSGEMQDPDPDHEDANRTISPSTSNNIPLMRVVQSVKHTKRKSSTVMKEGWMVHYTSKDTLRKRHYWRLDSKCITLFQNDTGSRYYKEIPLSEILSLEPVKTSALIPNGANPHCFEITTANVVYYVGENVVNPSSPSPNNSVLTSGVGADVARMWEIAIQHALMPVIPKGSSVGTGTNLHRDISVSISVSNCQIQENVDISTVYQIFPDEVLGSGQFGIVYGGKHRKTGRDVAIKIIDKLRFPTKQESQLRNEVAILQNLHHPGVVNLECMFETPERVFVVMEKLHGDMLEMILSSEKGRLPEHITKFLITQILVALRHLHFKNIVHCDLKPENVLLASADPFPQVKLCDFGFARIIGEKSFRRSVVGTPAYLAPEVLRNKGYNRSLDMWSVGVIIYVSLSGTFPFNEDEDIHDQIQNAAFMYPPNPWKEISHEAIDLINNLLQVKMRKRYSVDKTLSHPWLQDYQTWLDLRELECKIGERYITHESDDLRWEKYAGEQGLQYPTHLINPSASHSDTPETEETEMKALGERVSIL
Chain of Protein kinase C delta type (Homo sapiens) (Q05655 whole entry, looked up): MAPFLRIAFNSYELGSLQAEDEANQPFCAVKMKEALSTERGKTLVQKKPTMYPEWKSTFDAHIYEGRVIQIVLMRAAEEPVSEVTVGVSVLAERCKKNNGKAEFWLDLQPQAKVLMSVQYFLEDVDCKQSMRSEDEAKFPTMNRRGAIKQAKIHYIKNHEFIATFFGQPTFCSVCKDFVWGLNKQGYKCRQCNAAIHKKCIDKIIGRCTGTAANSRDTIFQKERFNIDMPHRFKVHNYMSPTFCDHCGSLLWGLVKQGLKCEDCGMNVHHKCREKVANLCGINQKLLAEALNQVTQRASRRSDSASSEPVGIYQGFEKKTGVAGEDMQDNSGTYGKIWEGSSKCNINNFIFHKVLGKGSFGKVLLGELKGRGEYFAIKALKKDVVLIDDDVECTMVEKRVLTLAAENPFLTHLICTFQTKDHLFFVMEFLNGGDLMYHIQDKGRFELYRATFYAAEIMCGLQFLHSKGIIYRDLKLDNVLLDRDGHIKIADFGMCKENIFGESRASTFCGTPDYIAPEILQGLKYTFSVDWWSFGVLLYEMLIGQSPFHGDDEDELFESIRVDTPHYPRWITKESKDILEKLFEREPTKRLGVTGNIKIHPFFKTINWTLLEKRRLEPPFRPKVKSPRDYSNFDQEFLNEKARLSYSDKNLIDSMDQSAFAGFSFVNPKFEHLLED

| SMILES | inhibition [1] [%] | inhibition [2] [%] | inhibition [3] [%] | inhibition [4] [%] | inhibition [5] [%] | inhibition [6] [%] | inhibition [7] [%] | inhibition [8] [%] | inhibition [9] [%] | inhibition [10] [%] | inhibition [11] [%] | inhibition [12] [%] | inhibition [13] [%] | inhibition [14] [%] | inhibition [15] [%] | inhibition [16] [%] | inhibition [17] [%] | inhibition [18] [%] | inhibition [19] [%] | inhibition [20] [%] | also measured |
| --- | --- | --- | --- | --- | --- | --- | --- | --- | --- | --- | --- | --- | --- | --- | --- | --- | --- | --- | --- | --- | --- |
| O=c1n(Cc2cncn2-c2cccc(Cl)c2)nc(-c2ccc(Cl)cc2)n1C[C@H](O)C(F)(F)F | -8.58 | 1.85 | 2.94 | -5.87 | -4.61 | -4.25 | -7.87 | -1 | 8.71 | -0.99 | -1 | 12.4 | -5.35 | -1.91 | -3 | 5.31 | 2 | -5.8 | -4.87 | -2.66 | inhibition [21]: 0.19%; inhibition [22]: -1.25%; inhibition [23]: 6.58%; inhibition [24]: -6.67%; inhibition [25]: -3.6%; inhibition [26]: -5.38%; inhibition [27]: -4.8%; inhibition [28]: -4.61% |
| C[C@H](O)c1nc(Cn2nc(-c3ccc(Cl)cc3)n(C[C@H](O)C(F)(F)F)c2=O)nn1-c1cccc(Cl)c1 [PECAVAPTAN] | -0.27 | -1.51 | 7.71 | 0.32 | 2.12 | 28.2 | -9.41 | -1 | 6.17 | -1.01 | -2 | 13.1 | -3.02 | -5.89 | 14 | -6.51 | 8 | -4.81 | -9.42 | -5.36 | inhibition [21]: -2.36%; inhibition [22]: 4.6%; inhibition [23]: 6.41%; inhibition [24]: -4.1%; inhibition [25]: 0.06%; inhibition [26]: 6.35%; inhibition [27]: 6.86%; inhibition [28]: -9.11% |
